For the experiment, the system named is LNCaP cells. The experiment in a line: Western blotting of Cyclin B1, Cyclin D1, γ-H2A.X, phosph-p53, p21. The note with it: scrambled siRNA controls. It is filed as cell-based. The procedure:
Western blotting: Twenty-five micrograms of protein were separated on 10% to 20% SDS-PAGE and transferred onto PVD filters (Millipore, Bedford, Mass.). Membranes were incubated with primary antibodies overnight at 4° C. followed by horseradish peroxidase-conjugated secondary antibodies, and developed with the Super Signal West Dura Extended Duration Substrate kit (Pierce). RBM3 antibody was generated in a rabbit against as peptide (Sigma-Gneosys, The Woodlands, Tex.). HSPA1A and CIRBP antibodies were obtained from Lifespan Biosciences (ProteinTech Group, Chicago, Ill.), phospho-Histone H2A.X antibody was obtained from Millipore. Other antibodies were purchased from Cell Signaling (Danvers, Mass.) and Santa Cruz (Santa Cruz, Calif.)
Prostate cancer cells PC-3 (FIG. 12A) and LNCaP (FIG. 12B) were transfected with 100 nM RBM3 or CIRBP SMARTpool siRNA. Forty-eight hours after transfection, cells were treated with 4 μg/ml cDDP or 1 μg/ml ADM for 4 h, and then moved back to normal medium for another 16 h. Cell lysates were subjected to Western blotting to detect Cyclin B1, Cyclin D1, phosph-histone H2A.X (Ser139) (γ-H2A.X), phosph-p53 (Ser15), and p21. Actin was used as a control for protein loading.
In general terms: Immunoblotting shows a protein as a band on a membrane.

SMILES strings stand for the structures.

The values below come from patent US20110313233A1, “DOWN-REGULATION OF COLD SHOCK PROTEINS FOR CANCER TREATMENT” (THE JOHNS HOPKINS UNIVERSITY, priority 2010, published 2011).

As for `COc1cccc2c1C(=O)c1c(O)c3c(c(O)c1C2=O)C[C@@](O)(C(=O)CO)C[C@@H]3O[C@H]1C[C@H](N)[C@H](O)[C@H](C)O1` [ADM, adriamycin], the “activation of p53 by drug treatment” value is “activated”.
In the case of `[NH2][Pt]([NH2])([Cl])[Cl]` [cDDP, cisplatin], the “activation of p53 by drug treatment” value is “activated”.
